Each structure is given as a SMILES string.

Assay [1] has as its target T1, mutEGFR (D770_N771insSVD) (Homo sapiens, UniProt P00533, DUP768-770).
T1 construct: GST-EGFR #3 (SVD between D770 and N771); made in house; host or cells: Sf9 insect cells (baculovirus)
The experiment in a line: Exon20-Mutant-EGFR (D770_N771insSVD) kinase assay (TR-FRET). The assay is classed as biochemical. To be noted: mutEGFR (D770_N771insSVD) kinase assay IC50, Table 2a; D770_N771insSVD; 2 mM ATP.

The target of assay [2] is T2, mutEGFR (D770_N771insNPG, T790) (Homo sapiens, UniProt P00533, INS770NPG/T790M).
T2 construct: exact insNPG construct not described; in-house EGFR proteins were N-terminal GST fusions from baculovirus/insect cells (borders R669-A1210 given only for WT, insSVD, insASV)
The assay can be described thus: mutEGFR (D770_N771insNPG, T790) kinase assay. The assay is classed as biochemical. To be noted: Table 2a, D770_N771insNPG. The text has this:
The different EGFR proteins used in the biochemical kinase activity inhibition assays were generated inhouse by expression in insect cells using Baculo Virus system and subsequent purification as described in the following paragraphs.
The cDNAs encoding the various protein sequences from human EGFR human (P00533) were optimized for expression in eukaryotic cells and synthesized by the GeneArt Technology at Life Technologies.

For a further assay, the system named is BA/F3 (insSVD) cells. The experiment in a line: Ba/F3-EGFR-insSVD cell survival assay (Cell Titer-Glo). The assay is classed as cell-based. Conditions: Table 3a, cell survival, Cell Titer-Glo, with 10 ng/ml EGF, without IL-3. The gist of the method: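 Ba/F3 cells stably expressing retroviral EGFR-insSVD or insSVD T790M, grown without IL-3 on 10 ng/ml EGF, 4000 cells/well. Compound pinned in, 48 h at 37° C. Viability by CellTiter-Glo luminescence.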
In general terms: Cellular ATP, detected with luciferase, serves as a proxy for viable cell number.

T2 sequence (P00533 with tags, fused parts or gaps INS770NPG/T790M limits assumed): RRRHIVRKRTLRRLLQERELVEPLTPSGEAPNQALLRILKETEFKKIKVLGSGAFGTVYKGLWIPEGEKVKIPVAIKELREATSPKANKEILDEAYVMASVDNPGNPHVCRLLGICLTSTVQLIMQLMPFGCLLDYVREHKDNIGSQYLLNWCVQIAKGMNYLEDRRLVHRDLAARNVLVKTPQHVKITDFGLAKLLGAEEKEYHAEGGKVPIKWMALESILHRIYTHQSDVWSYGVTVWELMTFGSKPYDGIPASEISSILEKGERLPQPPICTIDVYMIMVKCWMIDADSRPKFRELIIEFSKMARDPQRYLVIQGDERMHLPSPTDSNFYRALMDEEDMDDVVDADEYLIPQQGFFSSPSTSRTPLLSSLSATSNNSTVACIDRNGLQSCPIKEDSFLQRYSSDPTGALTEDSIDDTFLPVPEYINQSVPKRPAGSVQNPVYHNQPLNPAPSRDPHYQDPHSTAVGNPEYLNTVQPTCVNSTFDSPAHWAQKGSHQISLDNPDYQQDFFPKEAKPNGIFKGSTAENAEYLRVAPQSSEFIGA
T1 sequence (P00533 with tags, fused parts or gaps DUP768-770): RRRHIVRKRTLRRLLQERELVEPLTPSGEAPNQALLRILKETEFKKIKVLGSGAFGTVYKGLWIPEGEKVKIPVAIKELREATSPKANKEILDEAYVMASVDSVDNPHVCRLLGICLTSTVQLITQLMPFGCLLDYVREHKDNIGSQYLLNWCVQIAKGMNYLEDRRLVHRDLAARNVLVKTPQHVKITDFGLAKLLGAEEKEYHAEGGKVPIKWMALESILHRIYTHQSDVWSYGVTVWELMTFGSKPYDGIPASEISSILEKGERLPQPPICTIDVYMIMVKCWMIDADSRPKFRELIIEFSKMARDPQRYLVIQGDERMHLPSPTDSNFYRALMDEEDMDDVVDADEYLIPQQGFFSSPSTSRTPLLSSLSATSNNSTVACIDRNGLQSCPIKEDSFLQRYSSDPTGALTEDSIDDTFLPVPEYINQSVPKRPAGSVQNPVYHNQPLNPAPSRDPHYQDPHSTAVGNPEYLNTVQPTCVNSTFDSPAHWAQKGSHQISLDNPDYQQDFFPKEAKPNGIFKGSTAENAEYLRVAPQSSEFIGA

By IC50 is commonly meant the point on the concentration scale where inhibition reaches its midpoint. Consider `C=CC(=O)N1CCn2nc(Nc3ccc(Cl)cc3F)c(-c3ccncc3)c2C1` [Example 95, 1-[2-(4-chloro-2-fluoroanilino)-3-(pyridin-4-yl)-6,7-dihydropyrazolo[1,5-a]pyrazin-5(4H)-yl]prop-2-en-1-one], for which the IC50 in assay [1] amounted to 40.6 nM; in assay [2], 99.5 nM; in the assay with BA/F3 (insSVD) cells (Mus musculus, BaF3, 48 h) it was 1210 nM.

With `NCC#CC(=O)N1CCn2nc(-c3ccc(F)cc3)c(-c3ccncc3)c2C1` [Example 91, 4-amino-1-[2-(4-fluorophenyl)-3-(pyridin-4-yl)-6,7-dihydropyrazolo[1,5-a]pyrazin-5(4H)-yl]but-2-yn-1-one], the IC50 worked out at 26.3 nM in assay [1]; 52.8 nM in assay [2]; 1410 nM in the assay on BA/F3 (insSVD) cells (Mus musculus, BaF3, 48 h).

`C=CC(=O)N1CCn2nc(-c3ccc(Cl)cc3F)c(-c3ccncc3)c2C1C` (racemic) [Example 240, 1-[(RS)-2-(4-chloro-2-fluorophenyl)-4-methyl-3-(pyridin-4-yl)-6,7-dihydropyrazolo[1,5-a]pyrazin-5(4H)-yl]prop-2-en-1-one]: the IC50 in assay [1] came to 0.437 nM; in assay [2], 1.5 nM; in the assay with BA/F3 (insSVD) cells (Mus musculus, BaF3, 48 h), 54 nM.

In the case of `CC1c2c(-c3ccncc3)c(-c3ccc(Cl)cc3F)nn2CCN1C(=O)/C=C/CN(C)C` (racemic) [Example 244, (2E)-1-[(RS)-2-(4-chloro-2-fluorophenyl)-4-methyl-3-(pyridin-4-yl)-6,7-dihydropyrazolo[1,5-a]pyrazin-5(4H)-yl]-4-(dimethylamino)but-2-en-1-one], the IC50 in assay [1] came to 0.749 nM; in assay [2], 1.99 nM; with BA/F3 (insSVD) cells (Mus musculus, BaF3, 48 h), 168 nM.

Turning to `C=CC(=O)N1Cc2c(-c3ccncc3)c(-c3ccc(OC)cc3F)nn2CC1C` (racemic) [Example 231, 1-[(RS)-2-(2-fluoro-4-methoxyphenyl)-6-methyl-3-(pyridin-4-yl)-6,7-dihydropyrazolo[1,5-a]pyrazin-5(4H)-yl]prop-2-en-1-one], the 50% inhibitory concentration (IC50) in assay [1] worked out at 0.502 nM; in assay [2], 1.1 nM; with BA/F3 (insSVD) cells (Mus musculus, BaF3, 48 h), 65.9 nM.

Take `C=CC(=O)N1Cc2c(-c3ccncc3)c(-c3ccc(Cl)c(C)c3)nn2CC1(C)C` [Example 212, 1-[2-(4-chloro-3-methylphenyl)-6,6-dimethyl-3-(pyridin-4-yl)-6,7-dihydropyrazolo[1,5-a]pyrazin-5(4H)-yl]prop-2-en-1-one]: the IC50 in assay [1] was 5.61 nM; in assay [2] it was 10.1 nM; in the assay on BA/F3 (insSVD) cells (Mus musculus, BaF3, 48 h) it was 296 nM.

Turning to `C=C(CN(C)C)C(=O)N1CCn2nc(-c3ccc(F)cc3)c(-c3ccncc3)c2C1` [Example 62, 2-[(dimethylamino)methyl]-1-[2-(4-fluorophenyl)-3-(pyridin-4-yl)-6,7-dihydropyrazolo[1,5-a]pyrazin-5(4H)-yl]prop-2-en-1-one], the concentration for half-maximal inhibition (IC50) is 29.5 nM in assay [1]; 87.6 nM in assay [2]; 390 nM in the assay on BA/F3 (insSVD) cells (Mus musculus, BaF3, 48 h).

As to `C=CC(=O)N1Cc2c(-c3ccncc3)c(-c3ccc(F)cc3)nn2C(CC(=O)N(C)C)C1` (stereo not drawn) [Example 226, 2-(5-acryloyl-2-(4-fluorophenyl)-3-(pyridin-4-yl)-4,5,6,7-tetrahydropyrazolo[1,5-a]pyrazin-7-yl)-N,N-dimethylacetamide], the IC50 turned out to be 14 nM in assay [1]; 23.3 nM in assay [2]; 134 nM in the assay on BA/F3 (insSVD) cells (Mus musculus, BaF3, 48 h).

As for `Cc1c[nH]c2nccc(-c3c(-c4cccc(Cl)c4)nn4c3CN(C(=O)/C=C/CN(C)C)CC4)c12` [Example 184, (2E)-1-[2-(3-chlorophenyl)-3-(3-methyl-1H-pyrrolo[2,3-b]pyridin-4-yl)-6,7-dihydropyrazolo[1,5-a]pyrazin-5(4H)-yl]-4-(dimethylamino)but-2-en-1-one], the 50% inhibitory concentration (IC50) was 155 nM in assay [1]; 52.8 nM in assay [2]; 56.6 nM in the assay on BA/F3 (insSVD) cells (Mus musculus, BaF3, 48 h).

`C=CC(=O)N1CCn2nc(-c3ccc(C(F)(F)F)cc3)c(-c3ccnc4[nH]c(C)c(C)c34)c2C1` [Example 56, 1-[3-(2,3-dimethyl-1H-pyrrolo[2,3-b]pyridin-4-yl)-2-[4-(trifluoromethyl)phenyl]-6,7-dihydropyrazolo[1,5-a]pyrazin-5(4H)-yl]prop-2-en-1-one]: the IC50 in assay [1] was 281 nM; in assay [2], 670 nM; in the assay on BA/F3 (insSVD) cells (Mus musculus, BaF3, 48 h) it was 124 nM.

For the compound `CN(C)C/C=C/C(=O)N1CCn2nc(-c3ccc4cc[nH]c4c3)c(-c3ccncc3)c2C1` [Example 200, (2E)-4-(dimethylamino)-1-[2-(1H-indol-6-yl)-3-(pyridin-4-yl)-6,7-dihydropyrazolo[1,5-a]pyrazin-5(4H)-yl]but-2-en-1-one], the IC50 in assay [1] turned out to be 0.161 nM; in assay [2] it was 0.317 nM; in the assay on BA/F3 (insSVD) cells (Mus musculus, BaF3, 48 h), 69 nM.

For the compound `O=C(/C=C/Cl)N1CCn2nc(-c3ccc(Cl)cc3F)c(-c3ccncc3)c2C1` [Example 75, (2E)-3-chloro-1-[2-(4-chloro-2-fluorophenyl)-3-(pyridin-4-yl)-6,7-dihydropyrazolo[1,5-a]pyrazin-5(4H)-yl]prop-2-en-1-one], the IC50 in assay [1] is 0.197 nM; in assay [2], 0.995 nM; in the assay on BA/F3 (insSVD) cells (Mus musculus, BaF3, 48 h), 135 nM.

Turning to `CC(C)N(C)C/C=C/C(=O)N1CCn2nc(-c3ccc(Cl)cc3)c(-c3ccncc3)c2C1` [Example 166, (2E)-1-[2-(4-chlorophenyl)-3-(pyridin-4-yl)-6,7-dihydropyrazolo[1,5-a]pyrazin-5(4H)-yl]-4-[isopropyl(methyl)amino]but-2-en-1-one], the half-maximal inhibitory concentration (IC50) in assay [1] amounted to 0.169 nM; in assay [2], 0.338 nM; with BA/F3 (insSVD) cells (Mus musculus, BaF3, 48 h), 78.1 nM.

Regarding `C=CC(=O)N1CCn2nc(-c3cc4ccoc4cc3F)c(-c3ccncc3)c2C1` [Example 112, 1-[2-(6-fluoro-1-benzofuran-5-yl)-3-(pyridin-4-yl)-6,7-dihydropyrazolo[1,5-a]pyrazin-5(4H)-yl]prop-2-en-1-one], the IC50 in assay [1] was determined as 0.196 nM; in assay [2], 0.448 nM; with BA/F3 (insSVD) cells (Mus musculus, BaF3, 48 h) it was 20.3 nM.

In the case of `C=CC(=O)N1CCn2nc(-c3ccc(OC)cc3)c(-c3ccnc4[nH]cc(C)c34)c2C1` [Example 47, 1-[2-(4-methoxyphenyl)-3-(3-methyl-1H-pyrrolo[2,3-b]pyridin-4-yl)-6,7-dihydropyrazolo[1,5-a]pyrazin-5(4H)-yl]prop-2-en-1-one], the IC50 was found to be 864 nM in assay [1]; 666 nM in assay [2]; 231 nM in the assay with BA/F3 (insSVD) cells (Mus musculus, BaF3, 48 h).

Regarding `Cc1c[nH]c2nccc(-c3c(-c4ccc(C(F)(F)F)cc4)nn4c3C(C)N(C(=O)/C=C/CN(C)C)CC4)c12` (single isomer, unassigned; isomer 2) [Example 253, 4-(dimethylamino)-1-(4-methyl-3-(3-methyl-1H-pyrrolo[2,3-b]pyridin-4-yl)-2-(4-(trifluoromethyl)phenyl)-6,7-dihydropyrazolo[1,5-a]pyrazin-5(4H)-yl) but-2-en-1-one (isomer 2)], the IC50 in assay [1] turned out to be 247 nM; in assay [2] it was 3950 nM; in the assay with BA/F3 (insSVD) cells (48 h), 490 nM.

Regarding `C=CC(=O)N1CCn2nc(-c3ccc(F)c(C#N)c3)c(-c3ccncc3)c2C1` [Example 119, 2-fluoro-5-[5-(prop-2-enoyl)-3-(pyridin-4-yl)-4,5,6,7-tetrahydropyrazolo[1,5-a]pyrazin-2-yl]benzonitrile], the IC50 worked out at 23.2 nM in assay [1]; 7.03 nM in assay [2]; 153 nM in the assay with BA/F3 (insSVD) cells (Mus musculus, BaF3, 48 h).

These data come from patent US20260365653A1, “IRREVERSIBLE MUTEGFR INHIBITORS” (Bayer Aktiengesellschaft, priority 2022, published 2026).
